# Assay results published in patent publication US20230265068A1, “TRANSIENT RECEPTOR POTENTIAL CANONICAL 3 INHIBITORS AND METHODS OF USE THEREOF” (University of Tennessee Research Foundation, priority 2020, published 2023).
# How the values were obtained:
# hTRPM8 = biological target: T1, hTRPM8 (Homo sapiens, UniProt Q7Z2W7); test: whole-cell patch clamp selectivity, HEK 293 cells overexpressing hTRPM8; assay type: cell-based; conditions: HEK293, with agonist, solutions without Ca2+, read-out: % of the current of hTRPM8 inhibited
# T1 construct: expressed in transfected cells; host or cells: HEK293, transient transfection, pMO vector
# Procedure: (§1) Human embryonic kidney 293 (HEK293; catalog number CRL-1573) cells were cultured in Dulbecco's modified Eagle's medium (Invitrogen) supplemented with 10% fetal bovine serum and 1% penicillin-streptomycin at 37° C. and 5% CO2. Constructs cloned in pMO (a pcDNA3-modified vector) were co-transfected with GFP-pMO, using Lipofectamine 2000 (Invitrogen) according to the manufacturer's instructions. Macroscopic currents in the whole-cell patch clamp configuration were recorded 18-24 h post-transfection. The extracellular solution contained 140 mM NaCl, 6 mM KCl, 2 mM MgCl2, 10 mM HEPES, and 10 mM glucose (pH 7.4). Pipettes were made of borosilicate glass (outer diameter, 1.5 mm; inner diameter, 1.10 mm; Sutter Instruments) and fire-polished with a resistance between 2.8 and 4.0 megaohms when filled with an intracellular solution that contained 140 mM CsCl, 5 mM EGTA, and 10 mM HEPES, pH 7.2. Currents were recorded with a Multiclamp 700B amplifier (Molecular Devices) using a 1-s ramp from −100 to 100 mV. […] Data were acquired with a sampling rate of 20 kHz, low-pass filtered (10 kHz), and analyzed offline using Clampfit v10.4.2.0 (Molecular Devices). […]
# hTRPC7 = biological target: T2, hTRPC7 (Homo sapiens, UniProt Q9HCX4); test: whole-cell patch clamp selectivity, HEK 293 cells overexpressing hTRPC7; assay type: cell-based; conditions: HEK293, with agonist, solutions without Ca2+, read-out: % of the current of hTRPC7 inhibited
# T2 construct: expressed in transfected cells; host or cells: HEK293, transient transfection, pMO vector
# T2 sequence (Q9HCX4 1-862): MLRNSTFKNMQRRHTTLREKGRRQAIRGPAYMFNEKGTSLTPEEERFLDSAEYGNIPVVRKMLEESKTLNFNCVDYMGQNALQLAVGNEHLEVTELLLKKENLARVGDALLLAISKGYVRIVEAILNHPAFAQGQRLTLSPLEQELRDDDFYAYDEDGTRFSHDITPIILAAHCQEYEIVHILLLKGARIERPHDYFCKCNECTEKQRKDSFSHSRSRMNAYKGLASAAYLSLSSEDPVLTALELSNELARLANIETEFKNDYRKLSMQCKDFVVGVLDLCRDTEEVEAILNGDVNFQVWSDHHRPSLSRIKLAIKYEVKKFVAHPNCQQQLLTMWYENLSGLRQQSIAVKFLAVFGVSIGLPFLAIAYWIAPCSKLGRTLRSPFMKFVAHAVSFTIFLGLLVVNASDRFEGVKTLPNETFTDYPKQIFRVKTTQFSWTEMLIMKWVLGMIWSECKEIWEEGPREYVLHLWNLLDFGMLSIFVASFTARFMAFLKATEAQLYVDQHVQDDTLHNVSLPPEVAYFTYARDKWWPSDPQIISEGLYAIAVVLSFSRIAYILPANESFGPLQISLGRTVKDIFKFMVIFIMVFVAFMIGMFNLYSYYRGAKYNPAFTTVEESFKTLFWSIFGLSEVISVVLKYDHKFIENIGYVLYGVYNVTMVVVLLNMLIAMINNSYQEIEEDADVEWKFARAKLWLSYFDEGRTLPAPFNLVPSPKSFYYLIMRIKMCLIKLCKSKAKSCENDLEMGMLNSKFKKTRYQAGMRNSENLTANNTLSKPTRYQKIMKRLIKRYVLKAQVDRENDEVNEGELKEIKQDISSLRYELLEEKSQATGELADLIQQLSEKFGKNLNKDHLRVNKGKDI
# Procedure: as §1
# hTRPA1 = biological target: T3, hTRPA1 (Homo sapiens, UniProt O75762); test: whole-cell patch clamp selectivity, HEK 293 cells overexpressing hTRPA1; assay type: cell-based; conditions: HEK293, with agonist, solutions without Ca2+, read-out: % of the current of hTRPA1 inhibited
# T3 construct: expressed in transfected cells; host or cells: HEK293, transient transfection, pMO vector
# Procedure: as §1
# rTRPV4 = biological target: T4, rTRPV4 (Rattus norvegicus, UniProt Q9ERZ8); test: whole-cell patch clamp selectivity, HEK 293 cells overexpressing rTRPV4; assay type: cell-based; conditions: HEK293, with agonist, solutions without Ca2+, read-out: % of the current of rTRPV4 inhibited
# T4 construct: expressed in transfected cells; host or cells: HEK293, transient transfection, pMO vector
# Procedure: as §1
# hippocampal neurons [1] = test: toxicity of compound alone in hippocampal neuronal culture; assay type: cell-based, rat; conditions: compound alone at different concentrations
# Procedure: (§2) To explore the potential biological effects of compound 22 in a TRPC3 related disease model, its neuroprotective ability in primary cultured neurons (14 DIV prepared from E17 rats as described) was evaluated. The effects on neuron dendritic morphology were measured by imaging. Mature hippocampal neurons (DIV=14) were treated with CHO control medium, or naturally secreted Aβ-containing conditioned medium (7PA2), or in combination with compound 22 or Pyr3 at different concentrations, for 16 hours, followed by immunocytochemistry using an antibody against MAP2 and DAPI (data not shown). […] Hippocampal neurons (DIV=14) were treated with compound 22 or Pyr3 alone at different concentrations, followed by immunocytochemistry staining with MAP2 and DAPI (data not shown).
# hippocampal neurons [2] = test: neuroprotection against Aβ-containing conditioned medium (7PA2) in primary hippocampal neurons; assay type: cell-based, rat; conditions: 14 DIV neurons, 7PA2 medium, 16 hours, different concentrations
# Procedure: To visualize dendritic spines, 14 DIV hippocampal neurons at low density (5,000 cells per 35 mm dish) were exposed to 7PA2 conditioned media (CM), which contains naturally secreted Aβ, or CHO control media or for 16 h, with or without cotreatment with the two inhibitor compounds, followed by immunocytochemistry with MAP2 and DAPI counterstaining.
# as §2
# T1 sequence (Q7Z2W7 whole entry): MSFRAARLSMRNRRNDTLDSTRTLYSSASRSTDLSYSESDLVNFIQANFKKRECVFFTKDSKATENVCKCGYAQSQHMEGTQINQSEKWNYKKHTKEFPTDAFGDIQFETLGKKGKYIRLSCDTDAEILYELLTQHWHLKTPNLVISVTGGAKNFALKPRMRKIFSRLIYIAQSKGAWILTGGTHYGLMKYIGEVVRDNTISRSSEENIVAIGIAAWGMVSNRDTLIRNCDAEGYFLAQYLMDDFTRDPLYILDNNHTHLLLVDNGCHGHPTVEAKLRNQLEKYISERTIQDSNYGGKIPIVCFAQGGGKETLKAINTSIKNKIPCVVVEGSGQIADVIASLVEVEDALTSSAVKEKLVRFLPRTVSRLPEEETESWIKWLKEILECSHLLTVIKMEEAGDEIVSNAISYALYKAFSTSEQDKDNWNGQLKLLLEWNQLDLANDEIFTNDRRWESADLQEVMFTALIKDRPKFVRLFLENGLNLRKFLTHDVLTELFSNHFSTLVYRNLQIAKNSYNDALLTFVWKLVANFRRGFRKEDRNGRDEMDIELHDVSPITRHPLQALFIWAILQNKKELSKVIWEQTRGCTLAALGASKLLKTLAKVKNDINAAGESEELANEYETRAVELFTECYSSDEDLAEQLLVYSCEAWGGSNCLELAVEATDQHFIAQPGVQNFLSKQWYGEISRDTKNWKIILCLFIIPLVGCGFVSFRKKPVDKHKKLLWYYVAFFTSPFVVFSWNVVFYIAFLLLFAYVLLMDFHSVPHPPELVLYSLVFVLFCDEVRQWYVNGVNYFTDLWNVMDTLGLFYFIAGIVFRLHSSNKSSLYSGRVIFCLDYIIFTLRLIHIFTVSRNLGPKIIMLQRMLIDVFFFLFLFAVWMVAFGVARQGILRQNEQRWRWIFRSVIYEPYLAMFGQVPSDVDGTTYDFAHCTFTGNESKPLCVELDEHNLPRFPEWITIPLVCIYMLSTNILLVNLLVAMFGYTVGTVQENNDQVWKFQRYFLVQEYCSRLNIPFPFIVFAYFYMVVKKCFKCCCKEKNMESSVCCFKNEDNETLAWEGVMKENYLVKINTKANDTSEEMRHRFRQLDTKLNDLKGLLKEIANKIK
# T3 sequence (O75762 whole entry): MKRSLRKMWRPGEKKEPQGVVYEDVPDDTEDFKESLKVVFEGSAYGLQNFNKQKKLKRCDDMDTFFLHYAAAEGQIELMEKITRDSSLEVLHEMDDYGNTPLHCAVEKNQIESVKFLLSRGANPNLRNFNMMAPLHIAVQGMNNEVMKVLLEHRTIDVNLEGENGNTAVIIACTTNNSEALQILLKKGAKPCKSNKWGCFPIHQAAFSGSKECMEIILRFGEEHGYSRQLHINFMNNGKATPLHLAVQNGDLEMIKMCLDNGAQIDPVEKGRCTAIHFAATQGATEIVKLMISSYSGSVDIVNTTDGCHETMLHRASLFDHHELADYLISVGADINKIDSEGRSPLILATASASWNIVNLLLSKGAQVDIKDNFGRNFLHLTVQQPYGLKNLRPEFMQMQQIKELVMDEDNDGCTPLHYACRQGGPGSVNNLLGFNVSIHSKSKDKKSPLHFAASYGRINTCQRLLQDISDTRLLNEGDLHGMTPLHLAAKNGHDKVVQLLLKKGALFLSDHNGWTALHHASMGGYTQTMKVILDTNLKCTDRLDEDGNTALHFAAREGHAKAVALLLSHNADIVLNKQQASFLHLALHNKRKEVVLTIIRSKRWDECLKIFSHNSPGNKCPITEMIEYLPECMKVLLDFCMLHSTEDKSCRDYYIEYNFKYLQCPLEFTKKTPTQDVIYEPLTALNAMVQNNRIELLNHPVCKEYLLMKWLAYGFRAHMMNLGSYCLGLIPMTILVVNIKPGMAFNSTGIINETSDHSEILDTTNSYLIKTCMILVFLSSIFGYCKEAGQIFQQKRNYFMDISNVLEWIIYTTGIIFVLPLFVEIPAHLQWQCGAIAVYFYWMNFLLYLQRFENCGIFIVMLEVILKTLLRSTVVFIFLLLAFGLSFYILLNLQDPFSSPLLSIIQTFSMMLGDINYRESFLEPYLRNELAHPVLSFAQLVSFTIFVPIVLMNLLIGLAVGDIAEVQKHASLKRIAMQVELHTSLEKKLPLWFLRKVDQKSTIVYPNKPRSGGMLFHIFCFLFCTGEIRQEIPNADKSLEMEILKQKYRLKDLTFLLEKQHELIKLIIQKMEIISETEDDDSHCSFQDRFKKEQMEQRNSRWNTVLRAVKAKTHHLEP
# T4 sequence (Q9ERZ8 whole entry): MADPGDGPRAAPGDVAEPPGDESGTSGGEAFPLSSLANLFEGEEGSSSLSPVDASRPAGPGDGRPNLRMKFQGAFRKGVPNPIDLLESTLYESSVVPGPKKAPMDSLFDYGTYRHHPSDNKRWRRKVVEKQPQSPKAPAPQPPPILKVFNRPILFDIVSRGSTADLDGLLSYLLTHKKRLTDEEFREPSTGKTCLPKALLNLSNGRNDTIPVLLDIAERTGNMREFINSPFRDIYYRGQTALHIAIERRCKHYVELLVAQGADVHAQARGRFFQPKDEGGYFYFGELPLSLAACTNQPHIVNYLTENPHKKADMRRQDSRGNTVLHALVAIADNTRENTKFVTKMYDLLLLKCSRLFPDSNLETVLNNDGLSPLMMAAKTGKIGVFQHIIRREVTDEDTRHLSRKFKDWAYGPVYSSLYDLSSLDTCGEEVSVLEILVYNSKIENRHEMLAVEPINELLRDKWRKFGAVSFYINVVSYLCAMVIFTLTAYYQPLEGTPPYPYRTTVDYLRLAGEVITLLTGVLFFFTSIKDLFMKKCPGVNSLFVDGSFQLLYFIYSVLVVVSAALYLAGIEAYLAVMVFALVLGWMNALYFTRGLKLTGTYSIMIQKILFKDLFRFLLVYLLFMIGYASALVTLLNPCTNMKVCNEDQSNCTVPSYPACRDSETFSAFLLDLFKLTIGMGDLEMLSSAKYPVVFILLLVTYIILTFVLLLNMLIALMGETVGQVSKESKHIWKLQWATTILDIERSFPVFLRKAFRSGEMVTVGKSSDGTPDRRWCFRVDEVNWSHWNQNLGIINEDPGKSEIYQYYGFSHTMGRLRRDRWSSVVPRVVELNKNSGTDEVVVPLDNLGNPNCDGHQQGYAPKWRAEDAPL
compound,measurement,setting,value
CCNC(=O)c1cnn(-c2ccc(-n3ccc(Cl)c(Cl)c3=O)cc2)c1C(F)(F)F [Compound 22],inhibition at 10 µM,hTRPM8,< 5%
same,inhibition at 10 µM,hTRPC7,~22%
same,inhibition at 10 µM,hTRPA1,< 5%
same,inhibition at 10 µM,rTRPV4,< 5%
same,toxicity in neuronal culture,hippocampal neurons [1],lack of toxicity
same,protection against Aβ-induced damage to dendrites (MAP2/DAPI),hippocampal neurons [2],protect against Aβ-induced damage to dendrites
